IC50 data for 11 compounds are collected here from patent US9394305B2, “Substituted imidazo[1,2-a]pyridine compounds as tropomyosin receptor kinase a (TrkA) inhibitors” (Dr. Reddy's Laboratories Ltd., priority 2014, dated 2016).

T1 sequence (P04629 33-796): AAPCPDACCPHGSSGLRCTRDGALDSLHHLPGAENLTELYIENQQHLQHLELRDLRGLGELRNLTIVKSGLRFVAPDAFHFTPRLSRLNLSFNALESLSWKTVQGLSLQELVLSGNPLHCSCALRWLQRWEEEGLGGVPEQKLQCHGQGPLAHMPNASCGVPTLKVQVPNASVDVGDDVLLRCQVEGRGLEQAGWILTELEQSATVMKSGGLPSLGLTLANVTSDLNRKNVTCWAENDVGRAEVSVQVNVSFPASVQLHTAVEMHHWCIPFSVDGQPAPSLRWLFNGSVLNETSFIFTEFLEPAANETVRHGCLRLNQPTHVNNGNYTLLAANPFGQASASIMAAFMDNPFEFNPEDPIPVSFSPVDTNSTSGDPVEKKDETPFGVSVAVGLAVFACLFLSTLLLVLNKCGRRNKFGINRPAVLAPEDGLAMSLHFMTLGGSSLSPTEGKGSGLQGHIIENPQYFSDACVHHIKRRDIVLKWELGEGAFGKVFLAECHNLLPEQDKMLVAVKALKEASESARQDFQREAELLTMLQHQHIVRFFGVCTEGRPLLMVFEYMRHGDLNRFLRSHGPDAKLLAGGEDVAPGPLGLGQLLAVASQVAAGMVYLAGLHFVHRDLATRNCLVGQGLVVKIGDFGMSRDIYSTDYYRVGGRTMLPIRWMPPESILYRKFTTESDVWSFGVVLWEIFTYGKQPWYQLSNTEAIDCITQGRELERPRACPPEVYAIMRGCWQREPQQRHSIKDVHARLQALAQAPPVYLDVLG

The test has as its target T1, TrkA kinase (Homo sapiens, UniProt P04629).
T1 construct: purchased Upstate, USA
The test is described as follows: In vitro TrkA inhibitory activity using TR-FRET assay. It counts as biochemical. The note with it: 5 ng TrkA, 500 μM ATP, values given as bins, read-out: TrkA inhibition in-vitro IC50. As to the method: Compounds were screened in the TR-FRET assay with TrkA kinase. 5 ng of TrkA [Upstate, USA] kinase was used for assay. The compound was incubated with the kinase for 30 minutes at 20-35° C. After the incubation, substrate mix [40 nM Ultra light poly GT (Perkin Elmer, USA) and 500 μM ATP] was added. The above reaction was stopped by the addition of 40 mM EDTA after 30 minutes. The Eu-labelled antiphospho-tyrosine antibody [Perkin Elmer, USA] was added at 0.5 nM and the fluorescence emission at 615 nm/665 nm [excitation at 340 nm] was measured. The compounds were initially screened at 100 nM, 1 μM and 10 μM concentrations. The potent compounds with >25% inhibition at 1 μM of TrkA were taken for the full dose response studies. The final DMSO concentration in the assay was […]. For IC50 determination, ⅓^rd serial dilution was made from the 20 mM DMSO stock solution. 2 μl of these were transferred to the test wells containing 20 μl reaction mixture [Total reaction volume 22 μl]. The fluorescence was measured in Perkin Elmer Wallac 1420 Multilabel Counter Victor 3. The IC50 was determined by fitting the dose response data to a sigmoidal curve fitting equation using GraphPad Prism software version 5.
With `O=C(NS(=O)(=O)c1ccc(N2CC[C@H](O)C2)nc1)c1cnc2ccc(N3CCC[C@@H]3c3cc(F)ccc3F)cn12` [Example 33, 6-((R)-2-(2,5-difluorophenyl)pyrrolidin-1-yl)-N-((6-((S)-3-hydroxypyrrolidin-1-yl)pyridin-3-yl)sulfonyl)imidazo[1,2-a]pyridine-3-carboxamide], the IC50 fell in the range of 0.1 to 0.5 µM.
Under `CCN(C)S(=O)(=O)NC(=O)c1cnc2ccc(N3CCC[C@@H]3c3cc(F)ccc3F)cn12` [Example 34, (R)-6-(2-(2,5-difluorophenyl)pyrrolidin-1-yl)-N-(N-ethyl-N-methylsulfamoyl)imidazo[1,2-a]pyridine-3-carboxamide] stands at most 0.05 µM; under `O=C(NS(=O)(=O)c1ccc(-n2cncn2)cc1)c1cnc2ccc(N3CCC[C@@H]3c3cc(F)ccc3F)cn12` [Example 35, (R)-N-((4-(1H-1,2,4-triazol-1-yl)phenyl)sulfonyl)-6-(2-(2,5-difluorophenyl)pyrrolidin-1-yl)imidazo[1,2-a]pyridine-3-carboxamide], 0.05 to 0.1 µM; under `O=C(NS(=O)(=O)c1ccc(N2CC[C@H](O)C2)cc1)c1cnc2ccc(N3CCC[C@@H]3c3cc(F)ccc3F)cn12` [Example 36, 6-((R)-2-(2,5-difluorophenyl)pyrrolidin-1-yl)-N-((4-((S)-3-hydroxypyrrolidin-1-yl)phenyl)sulfonyl)imidazo[1,2-a]pyridine-3-carboxamide], 0.1 to 0.5 µM.
Next, `CCCN(C)S(=O)(=O)NC(=O)c1cnc2ccc(N3CCC[C@@H]3c3cc(F)ccc3F)cn12` [Example 37, (R)-6-(2-(2,5-difluorophenyl)pyrrolidin-1-yl)-N-(N-methyl-N-propylsulfamoyl)imidazo[1,2-a]pyridine-3-carboxamide]: at most 0.05 µM.
Next, `CN(CCF)S(=O)(=O)NC(=O)c1cnc2ccc(N3CCC[C@@H]3c3cc(F)ccc3F)cn12` [Example 38, (R)-6-(2-(2,5-difluorophenyl)pyrrolidin-1-yl)-N-(N-(2-fluoroethyl)-N-methylsulfamoyl)imidazo[1,2-a]pyridine-3-carboxamide]: at most 0.05 µM; `COCCN(C)S(=O)(=O)NC(=O)c1cnc2ccc(N3CCC[C@@H]3c3cc(F)ccc3F)cn12` [Example 39, (R)-6-(2-(2,5-difluorophenyl)pyrrolidin-1-yl)-N-(N-(2-methoxyethyl)-N-methylsulfamoyl)imidazo[1,2-a]pyridine-3-carboxamide]: at most 0.05 µM.
Take `CCN(CCF)S(=O)(=O)NC(=O)c1cnc2ccc(N3CCC[C@@H]3c3cc(F)ccc3F)cn12` [Example 40, (R)-6-(2-(2,5-difluorophenyl)pyrrolidin-1-yl)-N-(N-ethyl-N-(2-fluoroethyl)sulfamoyl)imidazo[1,2-a]pyridine-3-carboxamide]: the IC50 fell in the range of 0.05 to 0.1 µM.
Under `CN(CC(F)(F)F)S(=O)(=O)NC(=O)c1cnc2ccc(N3CCC[C@@H]3c3cc(F)ccc3F)cn12` [Example 41, (R)-6-(2-(2,5-difluorophenyl)pyrrolidin-1-yl)-N-(N-methyl-N-(2,2,2-trifluoroethyl)sulfamoyl)imidazo[1,2-a]pyridine-3-carboxamide] stands at most 0.05 µM; under `CN(CC(C)(C)F)S(=O)(=O)NC(=O)c1cnc2ccc(N3CCC[C@@H]3c3cc(F)ccc3F)cn12` [Example 42, (R)-6-(2-(2,5-difluorophenyl)pyrrolidin-1-yl)-N-(N-(2-fluoro-2-methylpropyl)-N-methylsulfamoyl)imidazo[1,2-a] pyridine-3-carboxamide], at most 0.05 µM; under `CN(c1cccnc1)S(=O)(=O)NC(=O)c1cnc2ccc(N3CCC[C@@H]3c3cc(F)ccc3F)cn12` [Example 43, (R)-6-(2-(2,5-difluorophenyl)pyrrolidin-1-yl)-N-(N-methyl-N-(pyridin-3-yl)sulfamoyl)imidazo[1,2-a]pyridine-3-carboxamide], at most 0.05 µM.

A word on the IC50: it is the midpoint of a concentration-inhibition curve.
